In ChEMBL document CHEMBL1133185, “Inhibition of clinically relevant mutant variants of HIV-1 by quinazolinone non-nucleoside reverse transcriptase inhibitors” (J Med Chem, 2000):

Tests used:
[1] = tested on: Human immunodeficiency virus 1; assay: Antiviral activity against HIV-1 K103N mutant virus.; type: functional
[2] = tested on: Human immunodeficiency virus 1; assay: Antiviral activity toward K103N mutant HIV-1 virus as protein binding adjusted (PB adj).; type: functional
[3] = tested on: Human immunodeficiency virus 1; assay: Antiviral activity was evaluated for the inhibition of wild-type RF strain of HIV-1 in an in vitro enzyme assay.; type: functional
[4] = target: Human immunodeficiency virus type 1 reverse transcriptase (Human immunodeficiency virus 1, UniProt Q72547); assay: Inhibition of HIV-1 reverse transcriptase.
[5] = tested on: Human immunodeficiency virus 1; assay: Compound was evaluated for the inhibition of human plasma protein binding adjusted (PB Adj) wild-type RF strain of HIV-1; type: functional; conditions: Human immunodeficiency virus 1, Plasma
[6] = tested on: Human immunodeficiency virus 1; assay: Compound was evaluated for antiviral activity against L100I mutant virus; type: functional
[7] = tested on: Human immunodeficiency virus 1; assay: Calculated Potency against Mutant HIV-1 K103N; type: functional
Homo sapiens [8] = organism: Homo sapiens; assay: percentage of the free compound in human serum; type: functional
MT2 [9] = assay: Antiviral activity against HIV-2 in MT-2 cells by yield assay; type: functional; conditions: Homo sapiens
[10] = tested on: Human immunodeficiency virus 1; assay: Plasma Potency against Mutant HIV-1 sV179D/L100I/Y181C; type: functional
[11] = tested on: Human immunodeficiency virus 1; assay: Plasma Potency against Mutant HIV-1 K103N; type: functional; conditions: Human immunodeficiency virus 1, Plasma
[12] = tested on: Human immunodeficiency virus 1; assay: Compound was evaluated for the inhibition of wide-type RF strain of HIV-1; type: functional
[13] = tested on: Human immunodeficiency virus 1; assay: Potency against Mutant HIV-1 sL100I; type: functional
[14] = tested on: Human immunodeficiency virus 1; assay: Calculated Potency against Mutant HIV-1 sL100I; type: functional
[15] = tested on: Human immunodeficiency virus 1; assay: Plasma Potency against Mutant HIV-1 sL100I; type: functional; conditions: Human immunodeficiency virus 1, Plasma
[16] = tested on: Human immunodeficiency virus 1; assay: Antiviral activity against Thai 9466, a wild-type clinical strain of HIV in PBMC by P24 assay; type: functional
MT2 [17] = assay: Antiviral activity against RF strain of HIV in MT-2 cells by RNA assay; type: functional; conditions: Homo sapiens
[18] = tested on: Human immunodeficiency virus 1; assay: Calculated Potency against Mutant HIV-1 sV179D/L100I/Y181C; type: functional
MT2 [19] = assay: Antiviral activity against RF strain of HIV in MT-2 cells by yield assay; type: functional; conditions: Homo sapiens
[20] = tested on: Human immunodeficiency virus 1; assay: Plasma antiviral activity was evaluated for RF strain of HIV-1; type: functional
[21] = tested on: Human immunodeficiency virus 1; assay: Antiviral activity against A018C, Zidovudine resistant clinical strain of HIV in PBMC by P24 assay; type: functional
MT2 [22] = assay: Protein Binding was evaluated by PB shift in MT-2 by RNA assay; type: functional; conditions: Homo sapiens
[23] = tested on: Human immunodeficiency virus 1; assay: Potency against Mutant HIV-1 K103N; type: functional
[24] = tested on: Human immunodeficiency virus 1; assay: Potency against Mutant HIV-1 sV179D/L100I/Y181C; type: functional
Homo sapiens [25] = organism: Homo sapiens; assay: percentage of the free compound in tissue culture medium; type: functional
[26] = tested on: Human immunodeficiency virus 1; assay: Potency of second-generation NNRTIs against Mutant HIV-1 K103N free drug; type: functional
MT2 [27] = assay: Antiviral activity of Protein Binding of compound was evaluated for RF virus expressed MT-2 by yield; type: functional, Human immunodeficiency virus 1; conditions: Homo sapiens
[28] = tested on: Human immunodeficiency virus 1; assay: Potency of second-generation NNRTIs against Mutant HIV-1 sV179D/L100I/Y181C plasma; value ranges from 130000-309500; type: functional
[29] = tested on: Human immunodeficiency virus 1; assay: Potency of second-generation NNRTIs against Mutant HIV-1 K103N; type: functional
[30] = tested on: Human immunodeficiency virus 1; assay: In vitro antiviral activity against HIV-1 (L100I).; type: functional
MT2 [31] = assay: Antiviral activity of Protein Binding of compound was evaluated for E virus expressed MT-2 by yield; type: functional, Human immunodeficiency virus 1; conditions: Homo sapiens
[32] = tested on: Human immunodeficiency virus 1; assay: Antiviral activity of Protein Binding of compound was evaluated for Thai 9466 virus expressed PBMC by P24; type: functional
[33] = tested on: Human immunodeficiency virus 1; assay: Potency of second-generation NNRTIs against Mutant HIV-1 K103N plasma; Vlaue ranges from 3400-8100; type: functional
[34] = tested on: Human immunodeficiency virus 1; assay: Potency of second-generation NNRTIs against Mutant HIV-1 sL100I plasma; Value ranges from 6600-15700; type: functional
MT2 [35] = assay: Antiviral activity of Protein Binding of compound was evaluated for PB shift virus expressed MT-2 by RNA; type: functional, Human immunodeficiency virus 1; conditions: Homo sapiens
[36] = tested on: Human immunodeficiency virus 1; assay: Potency of second-generation NNRTIs against Mutant HIV-1 sL100I free drug; type: functional
[37] = tested on: Human immunodeficiency virus 1; assay: Potency of second-generation NNRTIs against Mutant HIV-1 sL100I; type: functional
MT2 [38] = assay: Antiviral activity of Protein Binding of compound was evaluated for RF virus expressed MT-2 by RNA; type: functional, Human immunodeficiency virus 1; conditions: Homo sapiens
[39] = tested on: Human immunodeficiency virus 1; assay: Compound was evaluated for the inhibition of wilde-type RF strain of HIV-1; type: functional
MT2 [40] = assay: Antiviral activity of Protein Binding of compound was evaluated for HIV-2 virus expressed MT-2 by yield; type: functional, Human immunodeficiency virus 2; conditions: Homo sapiens
[41] = tested on: Human immunodeficiency virus 1; assay: Potency of second-generation NNRTIs against Mutant HIV-1 sV179D/L100I/Y181C; type: functional
[42] = tested on: Human immunodeficiency virus 1; assay: Potency of second-generation NNRTIs against Mutant HIV-1 sV179D/L100I/Y181C free drug; type: functional
[43] = percentage in tissue culture medium
Homo sapiens [44] = organism: Homo sapiens; assay: percentage in human serum; value ranges from -0.2-0.5; type: functional
[45] = tested on: Human immunodeficiency virus 1; assay: Antiviral activity of Protein Binding of compound was evaluated for A 018C virus expressed PBMC by P24; type: functional
[46] = tested on: Human immunodeficiency virus 1; assay: The compound was evaluated for the effect of human plasma protein binding on antiviral efficacy; type: functional; conditions: Human immunodeficiency virus 1, Plasma

## O=C1Nc2ccc(F)c(Cl)c2[C@@](C#Cc2ccccn2)(C(F)(F)F)N1
[1]; Human immunodeficiency virus 1
  IC90: 73 nM
[2]
  IC90: 1310 nM
[3]
  IC90: 2.3 nM
[4]
  IC50: 80 nM
[5]
  IC90: 41 nM
[6]
  IC90: 44 nM

## O=C1Nc2ccc(Cl)cc2[C@@](C#CC2CC2)(C(F)(F)F)N1 (stereo in doubt)
[7]
  IC90: 3.1 nM
Homo sapiens [8]
  Free: 1.5%
MT2 [9]
  IC90: > 2800 nM
[10]
  IC90: 3900 nM
[11]
  IC90: 210 nM
[1]
  IC90: 10 nM
[12]
  IC90: 2 nM
[13]
  IC90: 13 nM
[14]
  IC90: 4 nM
[15]
  IC90: 270 nM
[16]
  IC90: 5 nM
MT2 [17]
  IC90: 2 nM
[18]
  IC90: 59 nM
MT2 [19]
  IC90: 2.7 nM
[20]
  IC90: 40 nM
[21]
  IC90: 2.5 nM
MT2 [22]
  IC90: 17 nM
[23]
  IC90: 10 nM
[24]
  IC90: 190 nM
Homo sapiens [25]
  Free: 31%

## O=C1Nc2ccc(Cl)cc2[C@@](C#CC2CC2)(C(F)(F)F)O1 [EFAVIRENZ]
[26]
  IC90: 17 nM
MT2 [27]
  IC90: 2.4 nM
[28]
  IC90: 310000 nM
[29]
  IC90: 64 nM
[30]
  IC90: 77 nM
MT2 [31]
  IC90: 2.8 nM
[32]
  IC90: 8.5 nM
[1]; Human immunodeficiency virus 1
  IC90: 64 nM
[2]
  IC90: 1060 nM
[33]
  IC90: 8100 nM
[34]
  IC90: 15700 nM
MT2 [35]
  IC90: 17 nM
[36]
  IC90: 33 nM
[37]
  IC90: 120 nM
MT2 [38]
  IC90: 1.7 nM
[39]
  IC90: 1.7 nM
MT2 [40]
  IC90: > 3000 nM
[41]
  IC90: 2400 nM
[42]
  IC90: 650 nM
[43]
  Free: 27%
Homo sapiens [44]
  Free: 0.5%
[45]
  IC90: 2.8 nM

## CCC#C[C@]1(C(F)(F)F)NC(=O)Nc2ccc(F)c(F)c21
[46]
  IC90: 10 nM
[1]; Human immunodeficiency virus 1
  IC90: 14 nM
[2]
  IC90: 93 nM
[3]
  IC90: 1.5 nM
[4]
  IC50: 74 nM
[6]
  IC90: 18 nM
